Source: US20210122730A1, “GLUCOCORTICOID RECEPTOR MODULATORS” (ORIC Pharmaceuticals, Inc., priority 2017, published 2021)

The compounds below were run against T1, GR (Homo sapiens, UniProt P04150) (assay: In Vitro GR Luciferase Reporter Assay (antagonist mode, CHO-K1-GR-MMTV-Luc reporter cells)). Conditions: antagonist assay with 10 nM Dexamethasone, 18-24 hours.
T1 construct: expressed in transfected cells; host or cells: CHO-K1
T1 sequence (P04150 1-777): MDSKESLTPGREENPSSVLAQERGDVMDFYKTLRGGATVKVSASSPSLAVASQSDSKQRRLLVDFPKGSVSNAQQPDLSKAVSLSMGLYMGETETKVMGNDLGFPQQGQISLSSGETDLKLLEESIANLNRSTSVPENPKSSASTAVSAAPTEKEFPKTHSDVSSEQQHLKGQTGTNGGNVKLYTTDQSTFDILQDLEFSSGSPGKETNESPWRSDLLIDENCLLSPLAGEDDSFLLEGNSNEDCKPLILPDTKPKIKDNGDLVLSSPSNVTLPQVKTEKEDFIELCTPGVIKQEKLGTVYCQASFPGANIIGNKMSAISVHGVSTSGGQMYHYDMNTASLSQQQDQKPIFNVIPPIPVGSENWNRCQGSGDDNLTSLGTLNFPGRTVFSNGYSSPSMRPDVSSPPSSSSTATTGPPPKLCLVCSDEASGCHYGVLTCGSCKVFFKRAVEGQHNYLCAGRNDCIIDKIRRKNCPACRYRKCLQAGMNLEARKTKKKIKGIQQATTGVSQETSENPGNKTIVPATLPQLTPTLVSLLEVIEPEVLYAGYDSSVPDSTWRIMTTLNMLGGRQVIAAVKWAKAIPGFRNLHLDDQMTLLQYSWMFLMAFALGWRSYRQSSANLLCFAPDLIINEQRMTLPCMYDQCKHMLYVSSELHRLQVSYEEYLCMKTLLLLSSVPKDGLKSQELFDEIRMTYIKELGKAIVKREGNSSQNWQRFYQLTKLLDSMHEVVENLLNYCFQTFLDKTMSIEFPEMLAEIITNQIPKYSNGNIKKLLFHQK
Format: cell-based
Description: Example A: In Vitro GR Luciferase Reporter Assay
Cell Line: CHO-K1-GR-MMTV-Luc reporter cells
Culture Media: DMEM (with phenol red)+10% FBS
Assay Media: DMEM (without phenol red)+10% CSS
Culture CHO-K1I-GR-MMTV-Luc reporter cells in 15 cm plates in Culture Media at conditions less than 90% confluence.
Prepare 200×DMSO 1:5 serial dilutions of control and test compounds in 96-well non-sterile V bottom plate in DMSO, 8serial dilutions for each compound.
Prepare 5× Assay Media diluted compound serial dilutions in 96-well non-sterile V bottom plate: Add 97.5 uL/well of Assay Media into 96-well then add 2.5 ul of 200× concentration of compounds and mix well.
Seed cells for Antagonist Assay: […] CHO-K1-GR-MMTV-Luc reporter cells were seeded in a Corning 3707 flat clear bottom 384-well white TC plate in 20 ul of Assay Media containing 12.5 nM Dexamethasone (final concentration=10 nM).
Add compounds: 5 ul of assay media diluted compounds were added to appropriate wells and followed a quick spin (1000 rpm, 10 sec) to bring media and cells to the bottom of plate. The plates were covered with SealMate film to avoid evaporation and placed in 37° C. incubator for approximately 18-24 hours.
Read plates: Equilibrate appropriate amount of Promega OneGlo luciferase reagent to room temperature. Remove the plates from incubator and add 25 uL of OneGlo reagent/well by multiple channel pipette and read the plates with Tecan F500 luminometer within 3 minutes.
The ability of the compounds disclosed herein to inhibit GR activity was quantified and the respective IC50 value was determined. Table 1and Table 2provide the cellular IC50 values of compounds disclosed herein.
`Cc1ccc(S(=O)(=O)[C@H]2CCC3=Cc4c(cnn4-c4ccc(F)cc4)C[C@]3(C(=O)c3ccccn3)C2)cc1` [Example 1, ((4aS,6S)-1-(4-Fluorophenyl)-6-tosyl-1,4,5,6,7,8-hexahydro-4aH-benzo[f]indazol-4a-yl)(pyridin-2-yl)methanone] showed an IC50 of at most 100 nM.
`Cc1ccc(S(=O)(=O)[C@@H]2CCC3=Cc4c(cnn4-c4ccc(F)cc4)C[C@]3(C(=O)c3ccccn3)C2)cc1` [Example 2, ((4aS,6R)-1-(4-Fluorophenyl)-6-tosyl-1,4,5,6,7,8-hexahydro-4aH-benzo[f]indazol-4a-yl)(pyridin-2-yl)methanone] gave an IC50 of at most 100 nM.
For `Cn1cc(S(=O)(=O)[C@H]2CCC3=Cc4c(cnn4-c4ccc(F)cc4)C[C@]3(C(=O)c3cc(C(F)(F)F)ccn3)C2)cn1` [Example 3, ((4aS,6S)-1-(4-Fluorophenyl)-6-((1-methyl-1H-pyrazol-4-yl)sulfonyl)-1,4,5,6,7,8-hexahydro-4aH-benzo[f]indazol-4a-yl)(4-(trifluoromethyl)pyridin-2-yl)methanone], the IC50 was at most 100 nM.
In the case of `O=C(c1ccccc1)N(C1CC1)[C@H]1CCC2=Cc3c(cnn3-c3ccc(F)cc3)C[C@]2(C(=O)c2ccccn2)C1` [Example 6, N-Cyclopropyl-N-((4aS,6S)-1-(4-fluorophenyl)-4a-picolinoyl-4,4a,5,6,7,8-hexahydro-1H-benzo[f]indazol-6-yl)benzamide], the IC50 is reported as at most 100 nM.
Compound `O=C(c1ccccn1)[C@]12Cc3cnn(-c4ccc(F)cc4)c3C=C1CC[C@H](S(=O)(=O)N1CCCCC1)C2` [Example 7, [(4aS,6S)-1-(4-Fluorophenyl)-6-(1-piperidylsulfonyl)-5,6,7,8-tetrahydro-4H-benzo[f]indazol-4a-yl]-(2-pyridyl)methanone] has an IC50 of at most 100 nM.
With `Cc1ccc(S(=O)(=O)[C@H]2CCC3=Cc4c(cnn4-c4ccc(F)cc4)C[C@]3(C(=O)c3nccs3)C2)cc1` [Example 8, ((4aS,6S)-1-(4-fluorophenyl)-6-tosyl-1,4,5,6,7,8-hexahydro-4aH-benzo[f]indazol-4a-yl)(thiazol-2-yl)methanone] the IC50 was at most 100 nM.
For `Cc1ccc(S(=O)(=O)[C@@H]2CCC3=Cc4c(cnn4-c4ccc(F)cc4)C[C@]3(C(=O)c3nccs3)C2)cc1` [Example 9, ((4aS,6R)-1-(4-fluorophenyl)-6-tosyl-1,4,5,6,7,8-hexahydro-4aH-benzo[f]indazol-4a-yl)(thiazol-2-yl)methanone], the IC50 was at most 100 nM.
`O=C(c1ccccn1)[C@]12Cc3cnn(-c4ccc(F)cc4)c3C=C1CC[C@H](S(=O)(=O)c1ccc(C(F)(F)F)cc1)C2` [Example 10, ((4aS,6S)-1-(4-fluorophenyl)-6-((4-(trifluoromethyl)phenyl)sulfonyl)-1,4,5,6,7,8-hexahydro-4aH-benzo[f]indazol-4a-yl)(pyridin-2-yl)methanone] gave an IC50 of at most 100 nM.
`O=C(c1ccccn1)[C@]12Cc3cnn(-c4ccc(F)cc4)c3C=C1CC[C@@H](S(=O)(=O)c1ccc(C(F)(F)F)cc1)C2` [Example 11, ((4aS,6R)-1-(4-fluorophenyl)-6-((4-(trifluoromethyl)phenyl)sulfonyl)-1,4,5,6,7,8-hexahydro-4aH-benzo[f]indazol-4a-yl)(pyridin-2-yl)methanone] showed an IC50 of at most 100 nM.
In the case of `O=C(c1nccs1)[C@]12Cc3cnn(-c4ccc(F)cc4)c3C=C1CC[C@H](S(=O)(=O)c1ccc(C(F)(F)F)cc1)C2` [Example 12, ((4aS,6S)-1-(4-fluorophenyl)-6-((4-(trifluoromethyl)phenyl)sulfonyl)-1,4,5,6,7,8-hexahydro-4aH-benzo[f]indazol-4a-yl)(thiazol-2-yl)methanone], the IC50 is reported as 100 to 1000 nM.
Work on `O=C(c1nccs1)[C@]12Cc3cnn(-c4ccc(F)cc4)c3C=C1CC[C@@H](S(=O)(=O)c1ccc(C(F)(F)F)cc1)C2` [Example 13, ((4aS,6R)-1-(4-fluorophenyl)-6-((4-(trifluoromethyl)phenyl)sulfonyl)-1,4,5,6,7,8-hexahydro-4aH-benzo[f]indazol-4a-yl)(thiazol-2-yl)methanone] yielded an IC50 of 100 to 1000 nM.
With `O=C(c1cc(C(F)(F)F)ccn1)[C@]12Cc3cnn(-c4ccc(F)cc4)c3C=C1CC[C@H](S(=O)(=O)c1ccc(F)c(F)c1)C2` [Example 14, ((4aS,6S)-6-((3,4-difluorophenyl)sulfonyl)-1-(4-fluorophenyl)-1,4,5,6,7,8-hexahydro-4aH-benzo[f]indazol-4a-yl)(4-(trifluoromethyl)pyridin-2-yl)methanone] the IC50 was at most 100 nM.
Work on `Cc1ccc(S(=O)(=O)[C@H]2CCC3=Cc4c(cnn4-c4ccc(F)cc4)C[C@]3(C(=O)c3cc(C(F)(F)F)ccn3)C2)cc1` [Example 15, ((4aS,6S)-1-(4-fluorophenyl)-6-tosyl-1,4,5,6,7,8-hexahydro-4aH-benzo[f]indazol-4a-yl)(4-(trifluoromethyl)pyridin-2-yl)methanone] yielded an IC50 of at most 100 nM.

Same assay, conditions: antagonist mode, 10 nM Dexamethasone
For `C[C@@]1(S(=O)(=O)c2ccccc2)CCC2=Cc3c(cnn3-c3ccc(F)cc3)C[C@]2(C(=O)c2ccccn2)C1` (single isomer, unassigned) [Example 116, ((4aS,6R)-1-(4-Fluorophenyl)-6-methyl-6-(phenylsulfonyl)-1,4,5,6,7,8-hexahydro-4aH-benzo[f]indazol-4a-yl)(pyridin-2-yl)methanone or ((4aS,6S)-1-(4-fluorophenyl)-6-methyl-6-(phenylsulfonyl)-1,4,5,6,7,8-hexahydro-4aH-benzo[f]indazol-4a-yl)(pyridin-2-yl)methanone], the IC50 was at most 100 nM.
With `C[C@@]1(S(=O)(=O)c2ccccc2)CCC2=Cc3c(cnn3-c3ccc(F)cc3)C[C@]2(C(=O)c2ccccn2)C1` (single isomer, unassigned) [Example 117, ((4aS,6R)-1-(4-Fluorophenyl)-6-methyl-6-(phenylsulfonyl)-1,4,5,6,7,8-hexahydro-4aH-benzo[f]indazol-4a-yl)(pyridin-2-yl)methanone or ((4aS,6S)-1-(4-fluorophenyl)-6-methyl-6-(phenylsulfonyl)-1,4,5,6,7,8-hexahydro-4aH-benzo[f]indazol-4a-yl)(pyridin-2-yl)methanone] the IC50 was 100 to 1000 nM.
`Cn1cc(S(=O)(=O)C[C@@H]2CCC3=Cc4c(cnn4-c4ccc(F)cc4)C[C@]3(C(=O)c3cc(C(F)(F)F)ccn3)C2)cn1` (single isomer, unassigned) [Example 119] showed an IC50 of at most 100 nM.
`C[C@H]([C@H]1CCC2=Cc3c(cnn3-c3ccc(F)cc3)C[C@]2(C(=O)c2cc(C(F)(F)F)ccn2)C1)S(=O)(=O)c1cnn(C)c1` (single isomer, unassigned) [Example 120, ((4aR,6S)-1-(4-Fluorophenyl)-6-((R)-1-((1-methyl-1H-pyrazol-4-yl)sulfonyl)ethyl)-1,4,5,6,7,8-hexahydro-4aH-benzo[f]indazol-4a-yl)(4-(trifluoromethyl)pyridin-2-yl)methanone or ((4aR,6S)-1-(4-fluorophenyl)-6-((S)-1-((1-methyl-1H-pyrazol-4-yl)sulfonyl)ethyl)-1,4,5,6,7,8-hexahydro-4aH-benzo[f]indazol-4a-yl)(4-(trifluoromethyl)pyridin-2-yl)methanone] was tested, and the IC50 was at most 100 nM.
In the case of `C[C@H]([C@H]1CCC2=Cc3c(cnn3-c3ccc(F)cc3)C[C@]2(C(=O)c2cc(C(F)(F)F)ccn2)C1)S(=O)(=O)c1cnn(C)c1` (single isomer, unassigned) [Example 121, ((4aR,6S)-1-(4-Fluorophenyl)-6-((R)-1-((1-methyl-1H-pyrazol-4-yl)sulfonyl)ethyl)-1,4,5,6,7,8-hexahydro-4aH-benzo[f]indazol-4a-yl)(4-(trifluoromethyl)pyridin-2-yl)methanone or ((4aR,6S)-1-(4-fluorophenyl)-6-((S)-1-((1-methyl-1H-pyrazol-4-yl)sulfonyl)ethyl)-1,4,5,6,7,8-hexahydro-4aH-benzo[f]indazol-4a-yl)(4-(trifluoromethyl)pyridin-2-yl)methanone], the IC50 is reported as at most 100 nM.
